Assay results reported in the supplement of paper PMC10307832.

What was measured:
Assay in all cases: relative viability (nuclei count vs DMSO), 5 days (fraction); higher = more cells survive
TPCA-1 + Navitoclax = compound: C1=CC(=CC=C1C2=CC(=C(S2)NC(=O)N)C(=O)N)F [TPCA-1] + CC1(C)CCC(c2ccc(Cl)cc2)=C(CN2CCN(c3ccc(C(=O)NS(=O)(=O)c4ccc(N[C@H](CCN5CCOCC5)CSc5ccccc5)c(S(=O)(=O)C(F)(F)F)c4)cc3)CC2)C1 [Navitoclax] (partner 0.5 µM)
Method in brief: (§1)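 Dosing by pin tool came one day after lung cancer cell lines were seeded in 1536-well plates, using either one drug or a fixed anchor-drug dose plus five library-drug doses (not always all listed) in √10 steps. After 5 days, nuclei were counted on 4× images. Relative viability is treated-well nuclei count divided by vehicle-well nuclei count, and values are medians of duplicate plates.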

Lestaurtinib + AZD7762 = compound: C[C@]12O[C@H](C[C@]1(O)CO)n1c3ccccc3c3c4c(c5c6ccccc6n2c5c31)CNC4=O [Lestaurtinib] + NC(=O)Nc1cc(-c2cccc(F)c2)sc1C(=O)N[C@H]1CCCNC1 [AZD7762] (partner 0.2 µM)
Method in brief: as §1

[1] = compound: C[C@]12O[C@H](C[C@]1(O)CO)n1c3ccccc3c3c4c(c5c6ccccc6n2c5c31)CNC4=O [Lestaurtinib] + Nc1ncn([C@H]2C[C@H](O)[C@@H](CO)O2)c(=O)n1 [Decitabine] (partner 2 µM)
Method in brief: as §1

[2] = compound: C[C@]12O[C@H](C[C@]1(O)CO)n1c3ccccc3c3c4c(c5c6ccccc6n2c5c31)CNC4=O [Lestaurtinib] + O=C(CCCCCCC(=O)Nc1ccccc1)NO [Vorinostat] (partner 1 µM)
Method in brief: as §1

Row | Cell Line | relative viability (TPCA-1 + Navitoclax; first compound 0.04 µM) | relative viability (TPCA-1 + Navitoclax; first compound 0.1265 µM) | relative viability (TPCA-1 + Navitoclax; first compound 0.4 µM) | relative viability (TPCA-1 + Navitoclax; first compound 1.265 µM) | relative viability (TPCA-1 + Navitoclax; first compound 4 µM) | relative viability (Lestaurtinib + AZD7762; first compound 0.005 µM) | relative viability (Lestaurtinib + AZD7762; first compound 0.01581 µM) | relative viability (Lestaurtinib + AZD7762; first compound 0.05 µM) | relative viability (Lestaurtinib + AZD7762; first compound 0.1581 µM) | relative viability (Lestaurtinib + AZD7762; first compound 0.5 µM) | relative viability ([1]; first compound 0.005 µM) | relative viability ([1]; first compound 0.01581 µM) | relative viability ([1]; first compound 0.05 µM) | relative viability ([1]; first compound 0.1581 µM) | relative viability ([1]; first compound 0.5 µM) | relative viability ([2]; first compound 0.005 µM) | relative viability ([2]; first compound 0.01581 µM) | relative viability ([2]; first compound 0.05 µM) | relative viability ([2]; first compound 0.1581 µM) | relative viability ([2]; first compound 0.5 µM)
1 | EMC-BAC-2 | 1.21 | 1.19 | 1.14 | 1.13 | 1.01 | 1.07 | 1.12 | 0.842 | 0.441 | 0.346 | 0.955 | 1.04 | 1.01 | 0.659 | 0.418 | 0.32 | 0.703 | 0.337 | 0.317 | 0.222
2 | NCI-H1755 | 0.998 | 0.95 | 0.949 | 0.847 | 0.696 | 0.437 | 0.401 | 0.492 | 0.344 | 0.25 | 0.723 | 0.791 | 0.806 | 0.638 | 0.559 | 0.654 | 0.74 | 0.674 | 0.397 | 0.356
3 | NCI-H1993 | 1.01 |  | 0.794 | 0.756 | 0.809 | 0.581 | 0.553 | 0.619 | 0.632 | 0.47 | 0.62 | 0.666 | 0.729 | 0.499 | 0.428 | 0.823 | 0.808 | 0.754 | 0.455 | 0.485
4 | NCI-H23 | 0.823 | 0.742 | 0.687 | 0.616 | 0.694 | 0.213 | 0.257 | 0.227 | 0.246 | 0.203 | 0.349 | 0.315 | 0.339 | 0.295 | 0.228 | 0.602 | 0.645 | 0.549 | 0.308 | 0.126
5 | NCI-H1437 | 1.11 | 1.05 | 1.13 | 1.07 | 1.08 | 1.13 | 1.2 | 0.941 | 1.12 | 0.945 | 0.546 | 0.649 | 0.645 | 0.626 | 0.636 | 0.819 | 1 | 0.843 | 0.731 | 0.525
6 | NCI-H2405 | 0.971 | 0.691 | 0.964 |  | 0.714 | 0.746 | 0.885 | 0.492 | 0.662 | 0.218 | 0.728 | 0.77 | 0.742 | 0.638 | 0.413 | 1.03 | 1.29 | 0.88 | 0.938 | 0.253
7 | NCI-H838 | 1.23 | 0.985 | 1.13 | 0.995 | 0.812 | 1.01 | 0.951 | 0.933 | 0.873 | 0.681 | 0.508 | 0.559 | 0.501 | 0.399 | 0.161 | 0.792 | 0.724 | 0.681 | 0.333 | 0.172
8 | NCI-H1734 | 0.893 | 0.759 | 0.871 | 0.779 | 0.697 | 0.502 | 0.512 | 0.447 | 0.326 | 0.18 | 0.56 | 0.499 | 0.442 | 0.444 | 0.253 | 0.872 | 0.824 | 0.525 | 0.258 | 0.212
9 | NCI-H596 | 0.88 | 0.932 | 1.07 | 0.996 | 1.07 | 1.13 | 0.95 | 0.893 | 1.13 | 1.05 | 1.04 | 1.55 | 0.936 | 1.26 | 1.07 | 0.539 | 0.746 | 0.718 | 0.645 | 0.795
10 | NCI-H1944 | 1.07 | 0.949 | 1.06 | 0.921 | 0.823 | 0.609 | 0.514 | 0.623 | 0.487 | 0.228 | 0.419 | 0.481 | 0.442 | 0.463 | 0.317 | 0.556 | 0.521 | 0.693 | 0.408 | 0.205
11 | LK-2 | 0.868 | 0.664 | 0.955 | 0.778 | 0.71 | 0.388 | 0.523 | 0.272 | 0.276 | 0.135 | 0.281 | 0.462 | 0.239 | 0.224 | 0.145 | 0.237 | 0.353 | 0.198 | 0.193 | 0.154
12 | HCC-15 | 0.825 | 0.64 | 0.682 | 0.686 | 0.519 | 1.25 | 1.36 | 0.937 | 1.18 | 0.188 | 0.747 | 0.843 | 0.683 | 0.385 | 0.191 | 0.88 | 0.983 | 0.701 | 0.446 | 0.205
13 | NCI-H727 | 0.409 | 0.431 | 0.512 | 0.413 | 0.404 | 0.564 | 0.633 | 0.522 |  | 0.452 | 0.957 | 0.87 | 0.882 |  | 0.579 | 1.23 | 1.35 | 1.17 |  | 0.625
14 | HOP-62 | 0.982 | 1.06 | 1.02 | 0.899 | 0.809 | 0.56 | 0.657 | 0.323 | 0.609 | 0.313 | 0.171 | 0.231 | 0.273 | 0.323 | 0.211 | 0.632 | 0.767 | 0.494 | 0.426 | 0.295
15 | NCI-H3122 | 0.995 | 1.01 | 1.04 | 1.02 | 1.01 | 1.05 | 1.08 | 1.1 | 1.32 | 0.537 | 0.47 | 0.582 | 0.465 | 0.453 | 0.424 | 1.16 | 1.11 | 0.858 | 1.14 | 0.442
16 | NCI-H1395 | 1.2 | 0.932 | 1.25 | 1.05 | 0.99 | 0.385 | 0.405 | 0.407 | 0.384 | 0.325 | 0.778 | 0.765 | 0.774 | 0.684 | 0.453 | 0.696 | 0.902 | 0.607 | 0.47 | 0.343
17 | NCI-H647 | 1.1 | 0.9 | 1.22 | 0.67 | 0.706 | 0.307 | 0.756 | 0.275 | 0.165 | 0.0697 | 0.415 | 0.404 | 0.337 | 0.311 | 0.173 | 0.629 | 0.695 | 0.391 | 0.284 | 0.109
18 | EKVX | 0.956 | 0.818 | 0.913 | 0.793 | 0.836 | 0.718 |  | 0.643 | 0.755 | 0.546 | 0.518 |  | 0.357 | 0.396 | 0.342 | 0.744 | 0.742 | 0.765 | 0.578 | 0.368
19 | NCI-H460 | 1.24 | 1.04 | 1 | 1.1 | 0.709 | 0.651 | 0.765 | 0.757 | 1.31 | 0.645 | 0.639 | 0.519 | 0.499 | 0.548 | 0.305 | 1 | 1.01 | 0.653 | 1.1 | 0.503
20 | LCLC-97TM1 | 0.394 | 0.494 | 0.446 | 0.259 | 0.238 | 0.167 | 0.279 | 0.166 | 0.175 | 0.114 |  | 0.242 | 0.207 | 0.245 | 0.257 |  | 0.744 | 0.389 | 0.187 | 0.155
21 | NCI-H1355 | 1.02 | 0.903 | 0.912 | 0.826 | 0.686 | 0.839 | 0.815 | 0.574 | 0.54 | 0.422 | 0.389 | 0.349 | 0.329 | 0.311 | 0.344 | 0.733 | 0.675 | 0.457 | 0.412 | 0.31
22 | NCI-H1666 | 1.12 | 0.848 | 1.03 | 0.943 | 1.05 | 0.753 | 0.903 | 0.933 | 1.01 | 0.654 | 0.769 | 0.807 | 0.944 | 0.912 | 0.704 | 1.1 | 1.22 | 1.24 | 0.998 | 0.799
23 | EPLC-272H | 1.28 | 0.969 | 0.934 | 1.01 | 0.821 | 0.153 | 0.219 | 0.119 | 0.225 | 0.27 | 0.334 | 0.354 | 0.327 | 0.278 | 0.3 | 0.394 | 0.463 | 0.496 | 0.276 | 0.0829
24 | ChaGo-K-1 | 0.959 | 0.927 | 1.13 | 0.98 | 0.406 | 0.924 | 0.834 | 0.775 | 0.816 | 0.461 | 0.553 | 0.574 | 0.51 | 0.463 | 0.461 | 0.767 | 0.807 | 0.614 | 0.465 | 0.356
25 | NCI-H1651 | 0.97 | 0.913 | 0.947 | 1.16 | 0.995 | 0.447 | 0.503 | 0.349 | 0.558 | 0.318 | 0.63 | 0.775 | 0.59 | 0.653 | 0.406 | 0.555 | 0.617 | 0.539 | 0.58 | 0.23
26 | HCC-44 | 0.973 | 0.983 | 1.04 | 0.927 | 0.915 | 0.949 | 1.08 | 1.09 | 1.14 | 0.75 | 0.967 | 0.963 | 0.926 | 1.1 | 0.745 | 1.06 | 1.13 | 1.1 | 1.23 | 0.446
27 | PC-3 [JPC-3] | 0.839 | 0.807 | 0.802 | 0.677 | 0.719 | 0.759 | 1.04 | 0.688 | 0.586 | 0.485 | 0.814 | 0.829 | 0.915 | 0.816 | 0.733 | 0.644 | 1.15 | 0.866 | 0.816 | 0.469
